Results on 1 compound are retold here after PMC2769999 (Biochemistry, 2009).

Each structure is given as a SMILES string.

The target of the test is T1, V331C LacY (lactose permease), MIANS- or DACM-labelled (Escherichia coli, UniProt P02920, E325Q/K319L/V331C).
T1 sequence (P02920 1-417 K319L/E325Q/V331C): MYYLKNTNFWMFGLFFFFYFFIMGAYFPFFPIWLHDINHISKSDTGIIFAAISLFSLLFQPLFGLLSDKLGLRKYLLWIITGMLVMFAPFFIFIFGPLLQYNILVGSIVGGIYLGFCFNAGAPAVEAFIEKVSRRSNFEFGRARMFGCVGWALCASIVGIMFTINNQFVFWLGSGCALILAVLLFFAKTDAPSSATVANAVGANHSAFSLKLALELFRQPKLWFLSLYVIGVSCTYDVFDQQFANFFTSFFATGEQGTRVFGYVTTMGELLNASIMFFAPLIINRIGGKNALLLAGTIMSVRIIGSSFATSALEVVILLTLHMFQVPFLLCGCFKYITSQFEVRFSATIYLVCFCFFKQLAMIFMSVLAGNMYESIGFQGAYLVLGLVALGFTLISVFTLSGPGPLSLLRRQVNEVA
The test is described as follows: stopped-flow Trp to NPG FRET, kobs vs NPG. Type of test: binding.

`O=[N+]([O-])c1ccc(O[C@H]2O[C@H](CO)[C@H](O)[C@H](O)[C@H]2O)cc1` [NPG, 4-nitrophenyl α-D-galactopyranoside]: the equilibrium dissociation constant (Kd) (usually the free concentration of one partner at which half of the binding sites on the other are occupied at equilibrium, for simple one-to-one binding) was found to be 8.3 µM.
